Test results taken from the supplement of paper PMC4862054.

Columns and labels:
Test in all cases: normalised response (% of control), CellTox Green; higher = less cell death (100 = DMSO, 0 = benzethonium chloride kill control)
Conditions in all cases: incubation time: 72 h
BT-474 = system: BT-474
Outline: (§1)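 For each plate, 0.1 % DMSO was set to 100 and a positive kill control to 0. Breast cancer cell lines (20 µl suspension) were seeded into 384-well plates already holding compound at 5 concentrations in 10-fold steps over a 10,000-fold range chosen per compound, and incubated for 72 h. CellTox Green fluorescence at 485/520 nm was read before CellTiter-Glo luminescence, which followed 10 min at room temperature. Each value is the normalised signal at one concentration.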

BT-549 = system: BT-549
Outline: as §1

CAL-120 = system: CAL-120
Outline: as §1

CAL-148 = system: CAL-148
Outline: as §1

CAL-51 = system: CAL-51
Outline: as §1

CAL-85-1 = system: CAL-85-1
Outline: as §1

DU-4475 = system: DU-4475
Outline: as §1

HCC1143 = system: HCC1143
Outline: as §1

HCC1599 = system: HCC1599
Outline: as §1

HCC1937 = system: HCC1937
Outline: as §1

HDQ-P1 = system: HDQ-P1
Outline: as §1

Hs578T = system: Hs578T
Outline: as §1

MCF-10A = system: MCF-10A
Outline: as §1

MDA-MB-231 = system: MDA-MB-231
Outline: as §1

MDA-MB-436 = system: MDA-MB-436
Outline: as §1

MDA-MB-453 = system: MDA-MB-453
Outline: as §1

MDA-MB-468 = system: MDA-MB-468
Outline: as §1

MFM-223 = system: MFM-223
Outline: as §1

Row | Structure (SMILES) | normalised response (BT-474) | normalised response (BT-549) | normalised response (CAL-120) | normalised response (CAL-148) | normalised response (CAL-51) | normalised response (CAL-85-1) | normalised response (DU-4475) | normalised response (HCC1143) | normalised response (HCC1599) | normalised response (HCC1937) | normalised response (HDQ-P1) | normalised response (Hs578T) | normalised response (MCF-10A) | normalised response (MDA-MB-231) | normalised response (MDA-MB-436) | normalised response (MDA-MB-453) | normalised response (MDA-MB-468) | normalised response (MFM-223)
1 | CCOc1cc2ncc(C#N)c(Nc3ccc(OCc4ccccn4)c(Cl)c3)c2cc1NC(=O)/C=C/CN(C)C [Neratinib] (100 nM) | 78.8% | 105% | 106% | 100% | 115% | 93.7% | 106% | 115% | 107% | 96% | 99.5% | 90.3% | 114% | 109% | 97.8% | 110% | 75.7% | 103%
2 | CS(=O)(=O)OCCCCOS(C)(=O)=O [Busulfan] (10000 nM) | 101% | 108% | 103% | 106% | 113% | 103% | 102% | 121% | 82% | 106% | 95.2% | 94.5% | 104% | 108% | 74% | 103% | 96.5% | 97.1%
3 | COc1c(C)cnc(Cn2cnc3c(Cl)nc(N)nc32)c1C [BIIB021] (10000 nM) | 49.4% | 130% | 94.9% | 49.2% | 58.2% | 39% | 80.3% | 126% | 113% | 107% | 40.1% | 89.7% | 52.8% | 48.7% | 106% | 93.5% | 96.8% | 93.4%
4 | C[C@@]1(C(=O)Nc2ccc(F)nc2)CCCN1c1nc(Nc2cc(C3CC3)n[nH]2)c2cccn2n1 (10000 nM) | 95.3% | 65.3% | 26.9% | 59.1% | 18.7% | 67.8% | 90.2% | -57.9% | 90.1% | 104% | 34.9% | 82.1% | 25.8% | 49.8% | 90.4% | 109% | 49.8% | 71.2%
5 | COC1=CC(c2cc3ccccc3[nH]2)=N/C1=C\c1[nH]c(C)cc1C [Obatoclax] (10000 nM) | 94.9% | 78.2% | 99.2% | 77.3% | -16.5% | 117% | 101% | 91.9% | 99.9% | 95.4% | 102% | 129% | 74.2% | 0.38% | 102% | 96.2% | 82.9% | 96.7%
6 | O=c1[nH]cc(F)c(=O)[nH]1 [Fluorouracil] (1000 nM) | 101% | 109% | 105% | 98.5% | 114% | 101% | 105% | 110% | 101% | 94.5% | 107% | 60.9% | 111% | 106% | 101% | 87.5% | 96.7% | 102%
7 | C[C@@H]1C=C2C(=O)O[C@@H]3CC[C@H](C1)[C@]23O [Galiellalactone] (5000 nM) | 100% | 117% | 58.8% | 104% | 101% | 106% | 106% | 105% | 105% | 115% | 98.5% | 112% | 82.2% | 107% | 96.5% | 103% |  | 101%
8 | Cn1cnc2c(F)c(Nc3ccc(Br)cc3F)c(C(=O)NOCCO)cc21 [MEK-162] (100 nM) | 101% | 111% | 99.8% | 98.4% | 103% | 98.2% | 87.3% | 115% | 90.6% | 60.2% | 87.6% | 76.4% | 104% | 50.2% | 105% | 106% | 139% | 91.5%
9 | O=C(c1ccc(OCCN2CCCCC2)cc1)c1c(-c2ccc(O)cc2)sc2cc(O)ccc12 [Raloxifene] (1000 nM) | 97% | 106% | 104% | 92% | 121% | 98.6% | 104% | 119% | 102% | 119% | 105% | 105% | 104% | 103% | 107% | 103% | 120% | 
10 | COc1ccc(C2=N[C@@H](c3ccc(Cl)cc3)[C@@H](c3ccc(Cl)cc3)N2C(=O)N2CCNC(=O)C2)c(OC(C)C)c1 [Nutlin-3] (1000 nM) | 100% | 116% | 102% | 102% |  | 108% | 100% | 94.2% | 99.6% | 115% | 112% | 61.6% | 84% | 104% | 92.7% | 109% | 108% | 100%
